Patent publication US20160050929A1, “METHODS OF CONTROLLING NEONICOTINOID RESISTANT PESTS” (SYNGENTA PARTICIPATIONS AG, priority 2013, published 2016)

Tested on: Orius laevigatus
Assay: Safety to beneficial species: test on Orius laevigatus
Format: in vivo
Details: Orius laevigatus adults; for Corrected Mortality (%) 2 DAI: 2 days after infestation; for Corrected Mortality (%) 4 DAI: 4 days after infestation
Experimental: Phaseolus vulgaris var. Fulvio (french bean) plants were reduced to one leaf. With the leaves held in a horizontal position, a track sprayer was used to treat the plants at a rate corresponding to […]. Once dry, leaf discs were collected from the plants and placed treated side up in petri dishes containing 1% water agar.
A paper triangle was added for shelter, and a suitable amount of Ephestia eggs were added as a food supply. Five (5) Orius laevigatus (predatory bug, Syngenta Bioline) adults were added and the dishes closed with a cotton filter and perforated plastic lid. The dishes were incubated in a climate chamber at 25° C., 75% relative humidity, 16:8 h light/dark regime.
Six replicates were provided for each treatment and concentration level. The number of living and dead Orius laevigatus were counted two and four days after infestation (DAI). At the day two evaluation the food supply was replenished.

SMILES	Corrected Mortality (%) 2 DAI (rate 50 ppm)	Corrected Mortality (%) 4 DAI (rate 50 ppm)	Corrected Mortality (%) 2 DAI (rate 100 ppm)	Corrected Mortality (%) 4 DAI (rate 100 ppm)	Corrected Mortality (%) 2 DAI (rate 200 ppm)	Corrected Mortality (%) 4 DAI (rate 200 ppm)
C#CCN1[C@@H]2CC[C@H]1C[C@](C#N)(c1cncc(C#C)c1)C2 [Compound 1.070]	0%	0%	0%	0%	0%	0%
O=[N+]([O-])NC1=NCCN1Cc1ccc(Cl)nc1 [Imidacloprid, imidacloprid]	11%	30%	43%	65%	75%	100%
